The values that follow come from article PMC4358773, “Highly specific ubiquitin-competing molecules effectively promote frataxin accumulation and partially rescue the aconitase defect in Friedreich ataxia cells” (Neurobiology of Disease, 2015).

The assay concerns the target T1, frataxin precursor (aa 1-210) (Homo sapiens, UniProt Q16595).
T1 construct: gene FXN; full-length precursor, aa 1-210, recombinant, expressed and purified by GenScript
T1 sequence (Q16595 1-210): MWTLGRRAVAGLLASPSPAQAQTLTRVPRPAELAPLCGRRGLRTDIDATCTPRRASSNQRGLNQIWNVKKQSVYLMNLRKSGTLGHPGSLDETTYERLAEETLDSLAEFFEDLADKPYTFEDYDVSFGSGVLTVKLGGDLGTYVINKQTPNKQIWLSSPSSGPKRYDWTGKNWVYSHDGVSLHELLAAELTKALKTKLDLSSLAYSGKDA
The experiment in a line: intrinsic Trp fluorescence quenching, hyperbolic isotherm. As to conditions: 20 °C; 2 μM protein; ligand 0.5-25 μM; half-saturation binding constant; read-out: L1/2.

As for `C/C(=N\NC(=O)c1ccccc1)c1ccc2c(c1)Nc1ccccc1S2` [UCM108], the Kd worked out at 2300 ± 300 nM.
Next, `C/C(=N\NC(=O)c1ccc(C)cc1C)c1ccc2c(c1)Nc1ccccc1S2` [UCM53]: 2900 ± 300 nM.
